Patent US20220274980A1, “PHARMACOLOGICAL INHIBITORS OF THE ENL YEATS DOMAIN” (priority 2019, published 2022)

What was measured:
[1] = molecular target: T1, ENL localization to chromatin of target gene promoters (Homo sapiens, UniProt Q03111); assay: ENL ChIP-qPCR in MV4;11 cells; type: cell-based; settings: HOX intergenic region as negative control locus
T1 construct: 11 cells; endogenous in cells; host or cells: MV4;11
T1 sequence (Q03111 1-559): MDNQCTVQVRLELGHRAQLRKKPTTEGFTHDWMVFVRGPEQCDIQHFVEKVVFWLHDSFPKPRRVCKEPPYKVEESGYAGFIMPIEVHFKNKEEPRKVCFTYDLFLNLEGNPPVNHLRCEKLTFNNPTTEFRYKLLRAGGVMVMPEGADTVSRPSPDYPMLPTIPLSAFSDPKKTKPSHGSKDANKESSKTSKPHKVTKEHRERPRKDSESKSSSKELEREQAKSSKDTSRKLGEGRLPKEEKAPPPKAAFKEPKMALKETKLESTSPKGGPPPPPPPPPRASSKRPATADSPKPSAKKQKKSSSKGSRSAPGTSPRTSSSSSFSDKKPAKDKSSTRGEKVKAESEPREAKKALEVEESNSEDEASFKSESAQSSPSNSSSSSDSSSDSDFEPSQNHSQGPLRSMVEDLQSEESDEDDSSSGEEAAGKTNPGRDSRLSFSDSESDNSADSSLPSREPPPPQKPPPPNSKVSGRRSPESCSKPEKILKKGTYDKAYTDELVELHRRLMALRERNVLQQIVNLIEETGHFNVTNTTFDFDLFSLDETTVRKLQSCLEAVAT
Experimental: ChIP-qPCR. Chromatin immunoprecipitation (ChIP)-qPCR of ENL was performed in MV4; 11 cells using 50 million cells per treatment. Crosslinking was performed in batches of 50 million cells in 50 mL tissue culture media by addition of 1/10 volume of 10× crosslinking solution (11% formaldehyde, 50 mM HEPES pH 7.3, 100 mM NaCl, 1 mM EDTA pH 8.0, 0.5 mM EGTA ph 8.0). After 10 min of crosslinking at room temperature, formaldehyde was quenched with 125 mM glycine, cells were then washed three times in PBS pH 7.4, flash frozen in liquid nitrogen, and stored at −80° C. Frozen pellets were thawed on ice, resuspended in cold lysis buffer 1 (LB1; 5 mL per 50 million cells; 50 mM HEPES pH 7.3, 140 mM NaCl, 1 mM EDTA, 10% glycerol, 0.5% NP-40, and 0.25% Triton X-100, Roche protease inhibitor cocktail), and rotated for 10 minutes at 4° C. LB1 was removed and pelletswere resuspended in cold lysis buffer 2 (LB2; 5 mL per 50 million cells; 10 mM Tris-HCl pH 8.0, 200 mM NaCl, 1 mM EDTA pH 8.0 and 0.5 mM EGTA pH 8.0, Roche protease inhibitor cocktail) and rotated for 10 minutes at 4° C. LB2 was removed and pellets were resuspended in cold sonication buffer (1.5 mL per 50 million cells; 50 mM HEPES pH 7.3, 140 mM NaCl, 1 mM EDTA, 1 mM EGTA, 1% Triton X-100, 0.1% Na-deoxycholate, 0.1% SDS, Roche protease inhibitor cocktail). […] Results were quantified as percentage of the input sample.

[2] = Half-life in mouse liver microsomes; type: in vitro ADME; settings: read-out: t1/2 (min) mouse liver microsomes
[3] = tested on: ENL target gene expression (MYC, HOXA9); assay: qRT-PCR of ENL target gene expression; type: cell-based
Excerpt: Quantitative reverse-transcriptase PCR (qRT-PCR). […] The ddCt method was used to quantify fold change differences in gene expression between control and treated samples (using expression of B2M for normalization).

half-life [2]: 9.98 min
SMILES: O=C(NC1CCC1)c1ccc2nc(-c3cccc(NS(=O)(=O)NCCN4CCCCC4)c3)cn2c1 [Compound 93]
localization of ENL to chromatin of target gene promoters by ChIP-qPCR [1]: prevents localization of ENL to chromatin of target gene promoters
suppression of ENL target gene expression [3]: Suppression of ENL target gene expression
